Test results published in PubChem BioAssay AID2060492 (Molecular Pharmacology Branch, DTP, NCI, 2025).

Test system: 695427-040-R-J1-PDC complex spheroids, viability percent T/C
Test: Anticancer human tumor 695427-040-R-J1-PDC patient-derived colon adenocarcinoma cell line growth inhibition [GQUAD]
Details: for IC50: curve of first compound; for viability, T/C: stronger effect = lower value
Summary of the method: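 Viability of tumor cells grown as complex spheroids with endothelial and stromal cells, exposed to drug combinations. Top concentration at or near clinical Cmax (else 10 microM), diluted in half-log increments.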

[1] = second compound 0.0316 µM, first compound 0.0316 µM
[2] = second compound 0.0316 µM, first compound 0.1 µM
[3] = second compound 0.0316 µM, first compound 0.316 µM
[4] = second compound 0.0316 µM, first compound 1 µM
[5] = second compound 0.0316 µM, first compound 3.16 µM
[6] = second compound 0.0316 µM, first compound 10 µM
[7] = second compound 0.1 µM, first compound 0.0316 µM
[8] = second compound 0.1 µM, first compound 0.1 µM
[9] = second compound 0.1 µM, first compound 0.316 µM
[10] = second compound 0.1 µM, first compound 1 µM
[11] = second compound 0.1 µM, first compound 3.16 µM
[12] = second compound 0.1 µM, first compound 10 µM
[13] = second compound 0.316 µM, first compound 0.0316 µM
[14] = second compound 0.316 µM, first compound 0.1 µM
[15] = second compound 0.316 µM, first compound 0.316 µM
[16] = second compound 0.316 µM, first compound 1 µM
[17] = second compound 0.316 µM, first compound 3.16 µM
[18] = second compound 0.316 µM, first compound 10 µM
[19] = second compound 1 µM, first compound 0.0316 µM
[20] = second compound 1 µM, first compound 0.1 µM
[21] = second compound 1 µM, first compound 0.316 µM
[22] = second compound 1 µM, first compound 1 µM
[23] = second compound 1 µM, first compound 3.16 µM
[24] = second compound 1 µM, first compound 10 µM
[25] = second compound 3.16 µM, first compound 0.0316 µM
[26] = second compound 3.16 µM, first compound 0.1 µM
[27] = second compound 3.16 µM, first compound 0.316 µM
[28] = second compound 3.16 µM, first compound 1 µM
[29] = second compound 3.16 µM, first compound 3.16 µM
[30] = second compound 3.16 µM, first compound 10 µM
[31] = second compound 10 µM, first compound 0.0316 µM
[32] = second compound 10 µM, first compound 0.1 µM
[33] = second compound 10 µM, first compound 0.316 µM
[34] = second compound 10 µM, first compound 1 µM
[35] = second compound 10 µM, first compound 3.16 µM
[36] = second compound 10 µM, first compound 10 µM
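Further: spheroids exposed to compounds for seven days before readout.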

## COc1ccc([C@@H](O)c2cc(-c3ncnc4cc(N5CCOCC5)ccc34)c(F)cc2Cl)nn1 + Cc1[nH]c2ccc(F)cc2c1-c1nc2c3cccnc3c3ncccc3c2[nH]1
Second compound 0.0316 µM
  IC50: 3.62 µM
Second compound 0.1 µM
  IC50: > 10 µM
Second compound 0.316 µM
  IC50: > 10 µM
Second compound 1 µM
  IC50: 9.52 µM
Second compound 3.16 µM
  IC50: 5.46 µM
Second compound 10 µM
  IC50: 4.23 µM
[1]
  viability, T/C: 105%
[2]
  viability, T/C: 82.6%
[3]
  viability, T/C: 80.9%
[4]
  viability, T/C: 50.7%
[5]
  viability, T/C: 58.2%
[6]
  viability, T/C: 40.8%
[7]
  viability, T/C: 103%
[8]
  viability, T/C: 81.3%
[9]
  viability, T/C: 83.5%
[10]
  viability, T/C: 56.6%
[11]
  viability, T/C: 72.1%
[12]
  viability, T/C: 46.7%
[13]
  viability, T/C: 90.7%
[14]
  viability, T/C: 89.8%
[15]
  viability, T/C: 80.3%
[16]
  viability, T/C: 72%
[17]
  viability, T/C: 71.5%
[18]
  viability, T/C: 51.2%
[19]
  viability, T/C: 74.2%
[20]
  viability, T/C: 78.5%
[21]
  viability, T/C: 83.9%
[22]
  viability, T/C: 68.9%
[23]
  viability, T/C: 73.9%
[24]
  viability, T/C: 48.9%
[25]
  viability, T/C: 64.1%
[26]
  viability, T/C: 85.6%
[27]
  viability, T/C: 72.9%
[28]
  viability, T/C: 58.1%
[29]
  viability, T/C: 66.6%
[30]
  viability, T/C: 36.4%
[31]
  viability, T/C: 74%
[32]
  viability, T/C: 65.4%
[33]
  viability, T/C: 82.8%
[34]
  viability, T/C: 60.6%
[35]
  viability, T/C: 55.5%
[36]
  viability, T/C: 38.7%

## Cc1cccc(N(C)C(=O)C2C(O)CCN2c2nc(C)cc(C(F)(F)F)c2C#N)c1 (stereo not drawn) + Cc1[nH]c2ccc(F)cc2c1-c1nc2c3cccnc3c3ncccc3c2[nH]1
Second compound 0.0316 µM
  IC50: > 10 µM
Second compound 0.1 µM
  IC50: > 10 µM
Second compound 0.316 µM
  IC50: > 10 µM
Second compound 1 µM
  IC50: > 10 µM
Second compound 3.16 µM
  IC50: > 10 µM
Second compound 10 µM
  IC50: > 10 µM
[1]
  viability, T/C: 109%
[2]
  viability, T/C: 124%
[3]
  viability, T/C: 105%
[4]
  viability, T/C: 106%
[5]
  viability, T/C: 95.2%
[6]
  viability, T/C: 92.3%
[7]
  viability, T/C: 102%
[8]
  viability, T/C: 88%
[9]
  viability, T/C: 107%
[10]
  viability, T/C: 76.3%
[11]
  viability, T/C: 104%
[12]
  viability, T/C: 86.4%
[13]
  viability, T/C: 93.2%
[14]
  viability, T/C: 91.2%
[15]
  viability, T/C: 98.8%
[16]
  viability, T/C: 76.9%
[17]
  viability, T/C: 91.4%
[18]
  viability, T/C: 80.5%
[19]
  viability, T/C: 79.7%
[20]
  viability, T/C: 89.4%
[21]
  viability, T/C: 85.2%
[22]
  viability, T/C: 82.5%
[23]
  viability, T/C: 93.8%
[24]
  viability, T/C: 87.1%
[25]
  viability, T/C: 70.2%
[26]
  viability, T/C: 75.2%
[27]
  viability, T/C: 84.8%
[28]
  viability, T/C: 91.1%
[29]
  viability, T/C: 95.6%
[30]
  viability, T/C: 72.6%
[31]
  viability, T/C: 68.4%
[32]
  viability, T/C: 78.4%
[33]
  viability, T/C: 83.8%
[34]
  viability, T/C: 79.9%
[35]
  viability, T/C: 88.3%
[36]
  viability, T/C: 72%

## Cn1ncnc1[C@H]1c2n[nH]c(=O)c3cc(F)cc(c23)N[C@@H]1c1ccc(F)cc1 + Cc1[nH]c2ccc(F)cc2c1-c1nc2c3cccnc3c3ncccc3c2[nH]1
Second compound 0.0316 µM
  IC50: > 0.316 µM
Second compound 0.1 µM
  IC50: > 0.316 µM
Second compound 0.316 µM
  IC50: > 0.316 µM
Second compound 1 µM
  IC50: > 0.316 µM
Second compound 3.16 µM
  IC50: > 0.316 µM
Second compound 10 µM
  IC50: > 0.316 µM
Second compound 0.0316 µM, first compound 0.000999 µM
  viability, T/C: 98.9%
Second compound 0.0316 µM, first compound 0.00316 µM
  viability, T/C: 86.2%
Second compound 0.0316 µM, first compound 0.00999 µM
  viability, T/C: 98.2%
[1]
  viability, T/C: 103%
Second compound 0.0316 µM, first compound 0.0999 µM
  viability, T/C: 104%
[3]
  viability, T/C: 66.6%
Second compound 0.1 µM, first compound 0.000999 µM
  viability, T/C: 99.1%
Second compound 0.1 µM, first compound 0.00316 µM
  viability, T/C: 93.8%
Second compound 0.1 µM, first compound 0.00999 µM
  viability, T/C: 82%
[7]
  viability, T/C: 79.8%
Second compound 0.1 µM, first compound 0.0999 µM
  viability, T/C: 97.8%
[9]
  viability, T/C: 66.8%
Second compound 0.316 µM, first compound 0.000999 µM
  viability, T/C: 99.7%
Second compound 0.316 µM, first compound 0.00316 µM
  viability, T/C: 84.7%
Second compound 0.316 µM, first compound 0.00999 µM
  viability, T/C: 91.4%
[13]
  viability, T/C: 89.1%
Second compound 0.316 µM, first compound 0.0999 µM
  viability, T/C: 103%
[15]
  viability, T/C: 81.9%
Second compound 1 µM, first compound 0.000999 µM
  viability, T/C: 97.4%
Second compound 1 µM, first compound 0.00316 µM
  viability, T/C: 68.8%
Second compound 1 µM, first compound 0.00999 µM
  viability, T/C: 87.5%
[19]
  viability, T/C: 91.3%
Second compound 1 µM, first compound 0.0999 µM
  viability, T/C: 96.1%
[21]
  viability, T/C: 68.2%
Second compound 3.16 µM, first compound 0.000999 µM
  viability, T/C: 76.8%
Second compound 3.16 µM, first compound 0.00316 µM
  viability, T/C: 87%
Second compound 3.16 µM, first compound 0.00999 µM
  viability, T/C: 85.3%
[25]
  viability, T/C: 79.9%
Second compound 3.16 µM, first compound 0.0999 µM
  viability, T/C: 83.7%
[27]
  viability, T/C: 86%
Second compound 10 µM, first compound 0.000999 µM
  viability, T/C: 70.9%
Second compound 10 µM, first compound 0.00316 µM
  viability, T/C: 56.1%
Second compound 10 µM, first compound 0.00999 µM
  viability, T/C: 88.3%
[31]
  viability, T/C: 80.5%
Second compound 10 µM, first compound 0.0999 µM
  viability, T/C: 82.7%
[33]
  viability, T/C: 74.3%

## O=C(c1cc(Cc2n[nH]c(=O)c3ccccc23)ccc1F)N1CCN(C(=O)C2CC2)CC1 + Cc1[nH]c2ccc(F)cc2c1-c1nc2c3cccnc3c3ncccc3c2[nH]1
Second compound 0.0316 µM
  IC50: > 10 µM
Second compound 0.1 µM
  IC50: > 10 µM
Second compound 0.316 µM
  IC50: > 10 µM
Second compound 1 µM
  IC50: > 10 µM
Second compound 3.16 µM
  IC50: < 0.0316 µM
Second compound 10 µM
  IC50: > 10 µM
[1]
  viability, T/C: 97.7%
[2]
  viability, T/C: 105%
[3]
  viability, T/C: 101%
[4]
  viability, T/C: 82.3%
[5]
  viability, T/C: 94.6%
[6]
  viability, T/C: 95.2%
[7]
  viability, T/C: 114%
[8]
  viability, T/C: 93.4%
[9]
  viability, T/C: 97.7%
[10]
  viability, T/C: 78.3%
[11]
  viability, T/C: 93.2%
[12]
  viability, T/C: 84.9%
[13]
  viability, T/C: 105%
[14]
  viability, T/C: 89.1%
[15]
  viability, T/C: 91.5%
[16]
  viability, T/C: 91.1%
[17]
  viability, T/C: 96%
[18]
  viability, T/C: 102%
[19]
  viability, T/C: 84.3%
[20]
  viability, T/C: 87.4%
[21]
  viability, T/C: 73.1%
[22]
  viability, T/C: 78.5%
[23]
  viability, T/C: 99.5%
[24]
  viability, T/C: 79.2%
[25]
  viability, T/C: 47.6%
[26]
  viability, T/C: 87.2%
[27]
  viability, T/C: 74.8%
[28]
  viability, T/C: 69.1%
[29]
  viability, T/C: 91%
[30]
  viability, T/C: 87.4%
[31]
  viability, T/C: 62.6%
[32]
  viability, T/C: 69.1%
[33]
  viability, T/C: 92.1%
[34]
  viability, T/C: 82.5%
[35]
  viability, T/C: 75.9%
[36]
  viability, T/C: 89.8%
